Experimental data from patent publication US9556180B2, “Pyrazolo[3,4-d]pyrimidinone compounds as inhibitors of the P53/MDM2 interaction” (Novartis AG, priority 2013, dated 2017).

What was measured:
[1] = biological target: T1, p53-MDM2 interaction (human MDM2 protein, amino acids 2-188) (Homo sapiens, UniProt Q00987); experiment: p53-MDM2 Assay 2: slightly modified TR-FRET assay; assay type: binding; settings: 0.1 nM MDM2, 0.1 nM Europium labeled streptavidin, Tecan genios Pro reader
T1 construct: human MDM2 protein (amino acids 2-188); made in house
Experimental: (§1) Time Resolved Fluorescence Energy Transfer (TR-FRET) Assay
(§2) The inhibition of p53-MDM2 and p53-MDM4 interactions is measured by time resolved fluorescence energy transfer (TR-FRET). Fluorescence energy transfer (or Foerster resonance energy transfer) describes an energy transfer between donor and acceptor fluorescent molecules. For this assay, human MDM2 protein (amino acids 2-188) and human MDM4 protein (amino acids 2-185), tagged with a C-terminal biotin moiety, are used in combination with a Europium labeled streptavidin (Perkin Elmer, Inc., Waltham, Mass., USA) serving as the donor fluorophore. The p53 derived, Cy5 labeled peptide Cy5-TFSDLWKLL (p53 aa18-26) is the energy acceptor. Upon excitation of the donor molecule at 340 nm, binding interaction between MDM2 or MDM4 and the p53 peptide induces energy transfer and enhanced response at the acceptor emission wavelength at 665 nm. Disruption of the formation of the p53-MDM2 or p53-MDM4 complex due to an inhibitor molecule binding to the p53 binding site of MDM2 or MDM4 results in increased donor emission at 620 nm. The ratiometric FRET assay readout is calculated from the raw data of the two distinct fluorescence signals measured in time resolved mode (fluorescence 665 nm/fluorescence 620 nm×1000).
(§3) After addition of 1.25 nM MDM2-biotinylated or 2.5 nM MDM4-biotinylated (internal preparations, both MDM2 and MDM4 are biotinylated at the C-terminal of the peptide construct), and 0.625 nM Europium labeled streptavidin (Perkin Elmer), the solution is pre-incubated for 15 minutes at room temperature, then 10 nM Cy5-p53 peptide (internal preparation, the Cy5 dye is directly bound to the N-terminal part of p53 peptide construct) is added before an incubation at room temperature for 15 minutes prior to reading the plate. For measurement of samples, a Victor II microplate reader (Perkin Elmer) is used with the following settings: Excitation 340 nm, Emission Donor 620 nm and Emission Acceptor 665 nm. IC50 values are calculated by curve fitting using XLfit. If not specified, reagents are purchased from Sigma-Aldrich Chemie GmBH, Buchs, Switzerland.
(§4) This assay was used to evaluate compounds displaying inhibition of p53-MDM2 interaction and p53-MDM4 interaction at IC50s of 0.005 to 50 μM (p53-MDM2 Assay 1 and p53-MDM4 Assay 1, respectively). For selected compounds displaying IC50s between […] on MDM2, a slightly modified assay is used with the following adaptations: 0.1 nM MDM2, 0.1 nM Europium labeled streptavidin and Tecan genios Pro is used as a microplate reader for the fluorescence measurements (p53-MDM2 Assay 2).

[2] = biological target: T2, p53-MDM4 interaction (human MDM4 protein, amino acids 2-185) (Homo sapiens, UniProt O15151); experiment: p53-MDM4 Assay 1: TR-FRET inhibition of p53-MDM4 interaction; assay type: binding; settings: 2.5 nM MDM4-biotinylated, 10 nM Cy5-p53 peptide
T2 construct: human MDM4 protein (amino acids 2-185); made in house
T2 sequence (O15151 2-185): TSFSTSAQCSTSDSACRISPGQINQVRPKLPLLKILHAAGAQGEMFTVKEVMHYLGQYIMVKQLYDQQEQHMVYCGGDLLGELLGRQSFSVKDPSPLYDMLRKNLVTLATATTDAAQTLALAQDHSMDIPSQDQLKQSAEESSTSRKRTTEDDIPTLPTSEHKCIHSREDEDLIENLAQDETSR
Experimental: as §1, §2, §3, §4

[3] = biological target: T1, p53-MDM2 interaction (human MDM2 protein, amino acids 2-188); experiment: p53-MDM2 Assay 1: TR-FRET inhibition of p53-MDM2 interaction; assay type: binding; settings: 1.25 nM MDM2-biotinylated, 10 nM Cy5-p53 peptide
Experimental: as §1, §2, §3, §4

T1 sequence (Q00987 2-188): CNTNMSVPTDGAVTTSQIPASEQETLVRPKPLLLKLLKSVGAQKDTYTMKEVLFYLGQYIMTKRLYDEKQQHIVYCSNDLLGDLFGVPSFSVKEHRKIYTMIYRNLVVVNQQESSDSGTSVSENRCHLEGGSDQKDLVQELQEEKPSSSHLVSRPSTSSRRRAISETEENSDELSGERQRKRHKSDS

Row | Structure (SMILES) | IC50 [1] [nM] | IC50 [2] [nM] | IC50 [3] [nM] | melting point [°C]
1 | COc1ccccc1-n1nc2c(c1C(C)C)C(c1ccc(Cl)cc1)N(c1cc(Cl)c(=O)n(C)c1)C(=O)N2 (centres unmarked) [Example 13, 5-(5-Chloro-1-methyl-6-oxo-1,6-dihydro-pyridin-3-yl)-4-(4-chloro-phenyl)-3-isopropyl-2-(2-methoxy-phenyl)-2,4,5,7-tetrahydro-pyrazolo[3,4-d]pyrimidin-6-one] | 0.25 | 2180 | 1.6 | –
2 | COc1ccccc1-n1nc2c(c1C(C)C)C(c1ccc(Cl)cc1)N(c1cc(Cl)c(=O)n(CCN(C)C)c1)C(=O)N2 (centres unmarked) [Example 22, 5-[5-Chloro-1-(2-dimethylamino-ethyl)-6-oxo-1,6-dihydro-pyridin-3-yl]-4-(4-chloro-phenyl)-3-isopropyl-2-(2-methoxy-phenyl)-2,4,5,7-tetrahydro-pyrazolo[3,4-d]pyrimidin-6-one] | 1.43 | 6230 | 2.7 | –
3 | COc1ccccc1-n1nc2c(c1C(C)C)C(c1ccc(Cl)cc1)N(c1cc(Cl)c(=O)n(CCO)c1)C(=O)N2 (centres unmarked) [Example 18, 5-[5-Chloro-1-(2-hydroxy-ethyl)-6-oxo-1,6-dihydro-pyridin-3-yl]-4-(4-chloro-phenyl)-3-isopropyl-2-(2-methoxy-phenyl)-2,4,5,7-tetrahydro-pyrazolo[3,4-d]pyrimidin-6-one] | 0.56 | 2370 | 1.6 | –
4 | Cc1cc(Cl)ccc1C1c2c(nn(Cc3ccccc3)c2C(C)C)NC(=O)N1c1cc(Cl)ccc1C (centres unmarked) [Example 11, 2-Benzyl-4-(4-chloro-2-methyl-phenyl)-5-(5-chloro-2-methyl-phenyl)-3-isopropyl-2,4,5,7-tetrahydro-pyrazolo[3,4-d]pyrimidin-6-one] | – | – | 3.5 | 105 to 107
5 | COc1ccccc1-n1nc2c(c1C(C)C)C(c1ccc(Cl)cc1C)N(c1cccc(Cl)c1F)C(=O)N2 (centres unmarked) [Example 5, 5-(3-Chloro-2-fluoro-phenyl)-4-(4-chloro-2-methyl-phenyl)-3-isopropyl-2-(2-methoxy-phenyl)-2,4,5,7-tetrahydro-pyrazolo[3,4-d]pyrimidin-6-one] | – | 1710 | 1.45 | 140 to 143
6 | Cc1cc(Cl)ccc1C1c2c(nn(Cc3ccccn3)c2C(C)C)NC(=O)N1c1cccc(Cl)c1F (centres unmarked) [Example 8, 5-(3-Chloro-2-fluoro-phenyl)-4-(4-chloro-2-methyl-phenyl)-3-isopropyl-2-pyridin-2-ylmethyl-2,4,5,7-tetrahydro-pyrazolo[3,4-d]pyrimidin-6-one] | – | 8200 | 3.2 | 150 to 153
7 | CCn1cc(N2C(=O)Nc3nn(-c4ccccc4OC)c(C(C)C)c3C2c2ccc(Cl)cc2)cc(Cl)c1=O (centres unmarked) [Example 14, 5-(5-Chloro-1-ethyl-6-oxo-1,6-dihydro-pyridin-3-yl)-4-(4-chloro-phenyl)-3-isopropyl-2-(2-methoxy-phenyl)-2,4,5,7-tetrahydro-pyrazolo[3,4-d]pyrimidin-6-one] | 0.33 | 1480 | 1.5 | –
8 | CC(C)=CCn1nc2c(c1C(C)C)C(c1ccc(Cl)cc1C)N(c1cccc(Cl)c1F)C(=O)N2 (centres unmarked) [Example 4, 5-(3-chloro-2-fluorophenyl)-4-(4-chloro-2-methylphenyl) -3-isopropyl-2-(3-methylbut-2-en-1-yl)-4,5-dihydro-2H-pyrazolo[3,4-d]pyrimidin-6(7H)-one] | – | 78800 | 3.5 | 81 to 83

The remaining molecules from weak to strong by IC50 [3], led by results:

Row | IC50 [1] [nM] | IC50 [2] [nM] | IC50 [3] [nM] | melting point [°C] | Structure (SMILES)
9 | 0.18 | 1550 | 1.45 | – | COc1ccccc1-n1nc2c(c1C(C)C)C(c1ccc(Cl)cc1C)N(c1cc(Cl)c(=O)n(C)c1)C(=O)N2 (centres unmarked) [Example 15, 5-(5-Chloro-1-methyl-6-oxo-1,6-dihydro-pyridin-3-yl)-4-(4-chloro-2-methyl-phenyl)-3-isopropyl-2-(2-methoxy-phenyl)-2,4,5,7-tetrahydro-pyrazolo[3,4-d]pyrimidin-6-one]
10 | 0.19 | 1630 | 1.4 | – | CCn1cc(N2C(=O)Nc3nn(-c4ccccc4OC)c(C(C)C)c3C2c2ccc(Cl)cc2C)cc(Cl)c1=O (centres unmarked) [Example 21, 5-(5-Chloro-1-ethyl-6-oxo-1,6-dihydropyridin-3-yl)-4-(4-chloro-2-methylphenyl)-3-isopropyl-2-(2-methoxyphenyl)-4,5-dihydro-2H -pyrazolo[3,4-d]pyrimidin-6(7H)-one]
11 | 0.17 | 1350 | 1.3 | – | COCCn1cc(N2C(=O)Nc3nn(-c4ccccc4OC)c(C(C)C)c3C2c2ccc(Cl)cc2C)cc(Cl)c1=O (centres unmarked) [Example 19, 5-[5-Chloro-1-(2-methoxy-ethyl)-6-oxo-1,6-dihydro-pyridin-3-yl]-4-(4-chloro-2-methyl-phenyl)-3-isopropyl-2-(2-methoxy-phenyl)-2,4,5,7-tetrahydro-pyrazolo[3,4-d]pyrimidin-6-one]
12 | 0.21 | 4700 | 1.1 | – | COc1ccccc1-n1nc2c(c1C(C)C)C(c1ccc(Cl)cc1C)N(c1cc(Cl)ccc1C)C(=O)N2 (centres unmarked) [Example 10, 4-(4-Chloro-2-methyl-phenyl)-5-(5-chloro-2-methyl-phenyl)-3-isopropyl-2-(2-methoxy-phenyl)-2,4,5,7-tetrahydro-pyrazolo[3,4-d]pyrimidin-6-one]
13 | 0.42 | 2760 | 0.7 | – | COc1ccccc1-n1nc2c(c1C(C)C)[C@H](c1ccc(Cl)cc1C)N(c1cccc(Cl)c1F)C(=O)N2 [Example 6, (S)-5-(3-Chloro-2-fluoro-phenyl)-4-(4-chloro-2-methyl-phenyl)-3-isopropyl-2-(2-methoxy-phenyl)-2,4,5,7-tetrahydro-pyrazolo[3,4-d]pyrimidin-6-one]
